Key:
[1] = Toxicity assessment in xenograft-bearing mice; format: in vivo, female athymic nude BALB/c mice
Source text: Fig. 8 Analysis of potential side effects for treatment of RA-V. a–b The change curves of body weights of BALB/c bearing HCT116 (a) or HepG2 (b) xenograft tumors (n = 8 or 7). c Representative hematoxylin–eosin staining of heart, kidney, spleen, lung, and liver from vehicle- and various concentrations of RA-V-treated group. d The evaluation of serum ALT, AST, and creatine kinase for vehicle- and various concentrations of the RA-V-treated group
In total, 2 × 10^6 HCT116 or 3 × 10^6 HepG2 cells were subcutaneously injected into the right dorsal flank of 6- to 8-week-old female athymic nude BALB/c mice. After tumor volumes reached 100 mm^3, the tumor-bearing mice were randomly divided into several groups. The mice bearing HCT116 (n = 8) or HepG2 xenograft tumors (n = 7) were received the intravenous injection of vehicle micelles or various concentrations of RA-V micelles every other day. 5-FU (10 mg/kg) group as positive control. Body weights and tumor volumes were recorded every other day. Tumor volumes were calculated using the following formula: tumor volume (mm^3) = 0.52 × length × width^2. At the end of the experiments, the mice were killed. Tumor xenografts of each mouse were removed and weighed. Part of each tumor tissue was stored at liquid nitrogen for quantitative RT-PCR analysis. Organs (heart, kidney, spleen, lung, and liver) from killed mice were also removed, fixed in the 4% formaldehyde solution for microscopic examination by hematoxylin–eosin staining. Serum alanine transaminase(ALT), aspartate transaminase(AST), and creatine kinase(CK) were determined using relevant kits (Nanjing Jiancheng) according to the manufacturer’s specific instructions.

TAK1–TRAF6 interaction = target: T1, TAK1–TRAF6 interaction (Homo sapiens, UniProt O43318); assay: Co-immunoprecipitation of TAK1 and TRAF6; format: cell-based; conditions: HEK293T, Flag-TAK1 and HA-TRAF6; RA-V 800 nM 6 h
T1 construct: expressed in transfected cells; host or cells: HEK293T
T1 sequence (O43318 1-579 isoform O43318-2): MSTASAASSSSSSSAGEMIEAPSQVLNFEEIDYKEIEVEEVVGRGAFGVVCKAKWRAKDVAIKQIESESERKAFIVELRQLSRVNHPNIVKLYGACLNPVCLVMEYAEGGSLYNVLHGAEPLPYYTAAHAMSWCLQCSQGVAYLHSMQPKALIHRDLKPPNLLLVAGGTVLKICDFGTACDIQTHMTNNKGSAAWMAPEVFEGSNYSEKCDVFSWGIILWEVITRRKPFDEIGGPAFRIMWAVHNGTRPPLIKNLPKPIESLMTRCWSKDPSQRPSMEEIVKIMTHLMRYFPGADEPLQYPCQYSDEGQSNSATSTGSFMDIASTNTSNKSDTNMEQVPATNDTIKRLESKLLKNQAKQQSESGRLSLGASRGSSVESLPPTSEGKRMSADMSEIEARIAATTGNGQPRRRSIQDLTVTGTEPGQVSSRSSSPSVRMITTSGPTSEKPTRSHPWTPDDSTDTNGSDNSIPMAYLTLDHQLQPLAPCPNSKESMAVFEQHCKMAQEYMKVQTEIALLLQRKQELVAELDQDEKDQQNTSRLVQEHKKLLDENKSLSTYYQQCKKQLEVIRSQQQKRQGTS
Method: Fig. 4 RA-V blocks the interaction between TAK1 and TAB2. a RA-V blocked the exogenous TAK1–TAB2 interaction. HEK293T cells were transfected with Flag-TAK1 and HA-TAB2 for 24 h and then incubated with various concentrations of RA-V for 6 h. […] HEK293T cells were transfected with Flag-TAK1 and HA-TRAF6 or HA-TAB1 for 24 h and then incubated with RA-V (800 nM) for 6 h. The cell lysates were immunoprecipitated with HA antibody, and immunoblots were performed with the indicated antibodies. d RA-V blocked the endogenous TAK1–TAB2 interaction. HEK293T (left) or RAW264.7 (right) cells were incubated with 800 nM RA-V for 6 h and stimulated with 10 ng/mL TNF-α for 2 h or 1 μg/mL LPS for 3 h, respectively. The cell lysates were immunoprecipitated with TAK1 antibody or control IgG and then immunoblotted with the indicated antibodies. Each experiment was repeated at least three times
The cell lysates were prepared using radioimmunoprecipitation (RIPA) buffer containing 50 mM Tris-HCl pH 7.4, 150 mM NaCl, 1 mM ethylenediaminetetraacetic acid, 1% Triton X-100, 0.5% deoxycholate, and 0.1% sodium dodecyl sulfate, to which protease inhibitors (Roche) were added. The lysates were incubated with the indicated antibodies before adding 20 μL of Protein A/G agarose for 2 h. After four washes with the same buffer, the immunoprecipitates were boiled in 2 × SDS loading buffer.

[2] = tested on: TAK1, JNK, ERK, p38, and IKKα/β phosphorylation; assay: Western blot of TAK1 and downstream kinase phosphorylation; format: cell-based; conditions: HeLa; RA-V 12 h, 10 ng/mL TNF-α 10 min
Method: HEK293T cells were transfected with TAK1-N or TAK1-C for 24 h. The cells lysates were incubated with CB12 or biotin and precipitated with streptavidin-coated sepharose and were analyzed by immunoblotting with Flag antibody. b The model for RA-V binding to the crystal structure of the TAK1–TAB1 fusion protein (PDB 4GS6). The blue dotted lines represent the hydrogen bonds between RA-V (green) and TAK1–TAB1. c RA-V probably binds the ATP-binding pocket of TAK1. HEK293T cells were transfected with TAK1 for 24 h, and then the cell lysates were incubated with biotin or CB12 before precipitation with streptavidin agarose. The immunoprecipitates were treated with ATP or (5Z)-7-oxozeaenol and western blotted with Flag antibody. d RA-V inhibits TAK1, JNK, ERK, p38, and IKKα/β phosphorylation. HeLa cells were incubated with various concentrations of RA-V for 12 h and then treated with 10 ng/mL TNF-α for 10 min. The cell lysates were prepared and western blotted with the indicated antibodies. Each experiment was repeated at least three times
For western blot analysis, the samples were equally subjected to sodium dodecyl sulfate polyacrylamide gel electrophoresis (SDS-PAGE) and transferred to polyvinylidene difluoride membranes (Millipore). […] The protein bands were detected with the SuperSignal West Pico Chemiluminescent Substrate (Pierce).

## RA-V
[1]; HCT116 or HepG2 xenograft mice, measured every other day, vs control
  body weight: no obvious changes
[1]; hematoxylin–eosin staining, vs control
  toxic pathological changes in heart, kidney, spleen, lung and liver: no obvious toxic pathological changes
[1]; liver and heart toxicity, vs vehicle
  levels of serum ALT, AST and creatine kinase: no significant changes
TAK1–TRAF6 interaction
  TAK1–TRAF6 interaction: does not disrupt
[2]
  phosphorylation of TAK1 and of IKKα/β, JNK, ERK, and p38: inhibited
